In patent US9174997B2, “4-(4-cyano-2-thioaryl)dihydropyrimidinones and use thereof” (Bayer Intellectual Property GmbH, priority 2007, dated 2015):

Key:
[1] = system: rat hepatocytes; assay: Hepatocyte assay to determine the metabolic stability; format: in vitro ADME; conditions: after incubation with rat hepatocytes
Experimental: B-6. Hepatocyte Assay to Determine the Metabolic Stability
The metabolic stability of test compounds in the presence of hepatocytes is determined by incubating the compounds with low concentrations (preferably below or around 1 μM) and with low cell counts (preferably 1*10^6 cells/ml) in order to ensure as far as possible linear kinetic conditions in the experiment. Seven samples of the incubation solution are taken in a fixed time pattern for the […] analysis in order to determine the half-life (i.e. the degradation) of the compound in each case. Various clearance parameters (CL) and Fmax values are calculated from this half-life (see below).
The Cl and Fmax values represent a measure of the phase 1 and phase 2 metabolism of the compounds in the hepatocytes. In order to minimize the influence of the organic solvent on the enzymes in the incubation mixtures, this concentration is generally limited to 1% (acetonitrile) or 0.1% (DMSO).
A cell count for hepatocytes in the liver of 1.1*10^8 cells/g of liver is used for calculation for all species and breeds.
The calculated parameters and their meaning are:
Representative values for the compounds according to the invention from this assay after incubation of the compounds with rat hepatocytes are shown in Table B below: […]

[2] = biological target: human neutrophil elastase (HNE) (Homo sapiens (Human), UniProt P08246); assay: In vitro HNE inhibition assay; format: biochemical; conditions: HNE concentration of 80 pM; substrate MeOSuc-Ala-Ala-Pro-Val-AMC; 37° C. for 2 hours
Sequence of human neutrophil elastase (HNE) (P08246 30-267): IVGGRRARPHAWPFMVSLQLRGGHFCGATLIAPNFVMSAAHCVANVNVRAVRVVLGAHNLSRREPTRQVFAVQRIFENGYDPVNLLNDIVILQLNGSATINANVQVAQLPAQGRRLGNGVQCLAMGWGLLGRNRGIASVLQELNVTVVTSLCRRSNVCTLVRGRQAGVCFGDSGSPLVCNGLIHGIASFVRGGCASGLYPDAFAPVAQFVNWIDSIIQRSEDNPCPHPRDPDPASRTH
Experimental: B-1. In Vitro HNE Inhibition Assay
The potency of the compounds of the invention is ascertained in an in vitro inhibition assay. The HNE-mediated amidolytic cleavage of a suitable peptide substrate leads in this connection to an increase in the fluorescent light. The signal intensity of the fluorescent light is directly proportional to the enzyme activity.
Enzyme ([…]; from Serva, Heidelberg) and substrate (20 μM MeOSuc-Ala-Ala-Pro-Val-AMC; from Bachem, Weil am Rhein) are incubated in an assay volume of in total 50 μl of assay buffer (0.1 M HEPES pH 7.4, 0.5 M NaCl, 0.1% w/v BSA, 1% v/v DMSO) in a 384-well microtiter plate in the presence and absence of the test substance at 37° C. for 2 hours. […] The IC50 values are determined by plotting the intensity of the fluorescent light against the active substance concentration.

| SMILES | CLblood, calculated blood clearance (well stirred model) [1] [mL/min/kg] | Fmax, maximum possible bioavailability after oral administration (well-stirred) [1] [%] | IC50 [2] [nM] |
| --- | --- | --- | --- |
| CC1=C(C#N)[C@@H](c2ccc(C#N)cc2S(C)(=O)=O)N(CC(N)=O)C(=O)N1c1cccc(C(F)(F)F)c1 [Example 22, 2-[(6S)-5-Cyano-6-[4-cyano-2-(methylsulfonyl)phenyl]-4-methyl-2-oxo-3-[3-(trifluoromethyl)phenyl]-3,6-dihydropyrimidin-1(2H)-yl]acetamide] | 3.3 | 95 | 0.45 |
| CC(=O)C1=C(C)N(c2cccc(C(F)(F)F)c2)C(=O)N[C@@H]1c1ccc(C#N)cc1S(C)(=O)=O [Example 2, 4-{(4S)-5-Acetyl-6-methyl-2-oxo-1-[3-(trifluoromethyl)phenyl]-1,2,3,4-tetrahydropyrimidin-4-yl}-3-(methylsulfonyl)benzonitrile] | – | – | 10 |
| CC1=C(C#N)[C@@H](c2ccc(C#N)cc2S(C)(=O)=O)N(C(=O)N2CCN(CCO)CC2)C(=O)N1c1cccc(C(F)(F)F)c1 [Example 20, (4S)-4-[4-Cyano-2-(methylsulfonyl)phenyl]-3-{[4-(2-hydroxyethyl)piperazin-1-yl]carbonyl}-6-methyl-2-oxo-1-[3-(trifluoromethyl)phenyl]-1,2,3,4-tetrahydropyrimidine-5-carbonitrile] | – | – | 1.9 |
| CC1=C(C#N)[C@@H](c2ccc(C#N)cc2S(C)(=O)=O)N(C(=O)N2CCN(c3ccccn3)CC2)C(=O)N1c1cccc(C(F)(F)F)c1 [Example 69] | – | – | 0.9 |
| [C-]#[N+]C1=C(C)N(c2cccc(C(F)(F)F)c2)C(=O)N[C@@H]1c1ccc(C#N)cc1[S@+](C)[O-] (single isomer, unassigned; diastereomer 1) [Example 43 (Diastereomer 1)] | 21.7 | 69 | 0.3 |
| CC1=C(C#N)[C@@H](c2ccc(C#N)cc2S(C)(=O)=O)N(S(=O)(=O)C2CC2)C(=O)N1c1cccc(C(F)(F)F)c1 [Example 32, (4S)-4-[4-Cyano-2-(methylsulfonyl)phenyl]-6-methyl-3-(cyclopropylsulfonyl)-2-oxo-1-[3-(trifluoromethyl)phenyl]-1,2,3,4-tetrahydropyrimidine-5-carbonitrile] | 1.7 | 97 | < 0.3 |
| CC1=C(C#N)[C@@H](c2ccc(C#N)cc2S(C)(=O)=O)N(CC#N)C(=O)N1c1cccc(C(F)(F)F)c1 [Example 116, (4S)-3-(Cyanomethyl)-4-[4-cyano-2-(methylsulfonyl)phenyl]-6-methyl-2-oxo-1-[3-(trifluoromethyl)phenyl]-1,2,3,4-tetrahydropyrimidine-5-carbonitrile] | 6.7 | 91 | < 0.3 |
| CN1CC2=C(C1=O)[C@@H](c1ccc(C#N)cc1S(C)(=O)=O)N(S(C)(=O)=O)C(=O)N2c1cccc(C(F)(F)F)c1 [Example 36, 4-{(4S)-6-Methyl-3-(methylsulfonyl)-2,5-dioxo-1-[3-(trifluoromethyl)phenyl]-2,3,4,5,6,7-hexahydro-1H-pyrrolo[3,4-d]pyrimidin-4-yl}-3-(methylsulfonyl)benzonitrile] | 6.7 | 89 | < 0.3 |
| CC1=C(C#N)[C@@H](c2ccc(C#N)cc2S(C)(=O)=O)N(S(=O)(=O)c2cnn(C(F)F)c2C)C(=O)N1c1cccc(C(F)(F)F)c1 [Example 96] | – | – | < 0.3 |

Now from value to compound:

| CLblood, calculated blood clearance (well stirred model) [1] [mL/min/kg] | Fmax, maximum possible bioavailability after oral administration (well-stirred) [1] [%] | IC50 [2] [nM] | SMILES |
| --- | --- | --- | --- |
| 15 | 78 | < 0.3 | CCS(=O)(=O)c1cc(C#N)ccc1[C@@H]1C(C#N)=C(C)N(c2cccc(C(F)(F)F)c2)C(=O)N1C [Example 128, (4S)-4-[4-Cyano-2-(ethylsulfonyl)phenyl]-3,6-dimethyl-2-oxo-1-[3-(trifluoromethyl)phenyl]-1,2,3,4-tetrahydropyrimidine-5-carbonitrile] |
| 6.7 | 91 | < 0.3 | CC1=C(C#N)[C@@H](c2ccc(C#N)cc2S(C)(=O)=O)N(S(C)(=O)=O)C(=O)N1c1cccc(C(F)(F)F)c1 [Example 27, (4S)-4-[4-Cyano-2-(methylsulfonyl)phenyl]-6-methyl-3-(methylsulfonyl)-2-oxo-1-[3-(trifluoromethyl)phenyl]-1,2,3,4-tetrahydropyrimidine-5-carbonitrile] |
| 28.3 | 59 | < 0.3 | CC1=C(C#N)[C@@H](c2ccc(C#N)cc2S(C)(=O)=O)N(C(=O)NN(CCO)CCO)C(=O)N1c1cccc(C(F)(F)F)c1 [Example 12, (6S)-5-Cyano-6-[4-cyano-2-(methylsulfonyl)phenyl]-N′,N′-bis(2-hydroxyethyl)-4-methyl-2-oxo-3-[3-(trifluoromethyl)phenyl]-3,6-dihydropyrimidine-1(2H)-carbohydrazide] |
| 25 | 65 | < 0.3 | CC1=C(C#N)[C@@H](c2ccc(C#N)cc2S(C)(=O)=O)N(C(=O)NCCO)C(=O)N1c1cccc(C(F)(F)F)c1 [Example 10, (6S)-5-Cyano-6-[4-cyano-2-(methylsulfonyl)phenyl]-N-(2-hydroxyethyl)-4-methyl-2-oxo-3-[3-(trifluoromethyl)phenyl]-3,6-dihydropyrimidine-1(2H)-carboxamide] |
| – | – | < 0.3 | CC1=C(C#N)[C@@H](c2ccc(C#N)cc2S(C)(=O)=O)N(C(=O)NCCOCCO)C(=O)N1c1cccc(C(F)(F)F)c1 [Example 14, (6S)-5-Cyano-6-[4-cyano-2-(methylsulfonyl)phenyl]-N-[2-(2-hydroxyethoxy)ethyl]-4-methyl-2-oxo-3-[3-(trifluoromethyl)phenyl]-3,6-dihydropyrimidine-1(2H)-carboxamide] |
| 12 | 83 | < 0.3 | CC1=C(C#N)[C@@H](c2ccc(C#N)cc2S(C)(=O)=O)N(S(=O)(=O)c2ccc(F)cc2)C(=O)N1c1cccc(C(F)(F)F)c1 [Example 91] |
| – | – | < 0.3 | CC1=C(C#N)[C@@H](c2ccc(C#N)cc2S(C)(=O)=O)N(C(=O)OCc2ccccc2)C(=O)N1c1cccc(C(F)(F)F)c1 (stereo in doubt) [Example 120, Benzyl 5-cyano-6-[4-cyano-2-(methylsulfonyl)phenyl]-4-methyl-2-oxo-3-[3-(trifluoromethyl)phenyl]-3,6-dihydropyrimidine-1(2H)-carboxylate] |
| – | – | < 0.3 | CSc1cc(C#N)ccc1[C@H]1NC(=O)N(c2cccc(C(F)(F)F)c2)C(C)=C1C#N [Example 41, (4S)-4-[4-Cyano-2-(methylsulfanyl)phenyl]-6-methyl-2-oxo-1-[3-(trifluoromethyl)phenyl]-1,2,3,4-tetrahydropyrimidine-5-carbonitrile] |
| 20 | 72 | < 0.3 | CC1=C(C(=O)OCCO)[C@@H](c2ccc(C#N)cc2S(C)(=O)=O)N(S(C)(=O)=O)C(=O)N1c1cccc(C(F)(F)F)c1 [Example 144, 2-Hydroxyethyl (4S)-4-[4-cyano-2-(methylsulfonyl)phenyl]-6-methyl-3-(methylsulfonyl)-2-oxo-1-[3-(trifluoromethyl)phenyl]-1,2,3,4-tetrahydropyrimidine-5-carboxylate] |
